From patent US10308608B2, “Histone deacetylase inhibitors” (BIOMARIN PHARMACEUTICAL INC., priority 2015, dated 2019) come the findings set out here.

SMILES strings stand for the structures. Structures can show the parent of a compound that is named as a salt.

The experiment has as its system Frataxin (FXN) mRNA. As to the kind of experiment: Effect of HDAC inhibitors on frataxin (FXN) mRNA expression, qRT-PCR in compound-treated iPSC derived neuronal cells. The settings on record: iPSC, 24 h, compound concentration of 0.625 μM, 24 h incubation, read-out: FXN mRNA fold induction. The experiment is classed as cell-based. As for the experimental part: Effect of HDAC Inhibitors on Frataxin (FXN) mRNA Expression
Method: mRNA quantification of compound-treated iPSC derived neuronal cells Neuronal stem cells were cultured in Neurobasal A medium (Life technologies #10888022) supplemented with N2, B27 (Life technologies #17502-048 and #17504-044), L-glutamine (Life technologies #25030081), supplemented with 20 ng/ml EGF (R&D Systems #236-EG) and 20 ng/ml bFGF (BioPioneer # HRP-0011). Neuronal differentiation was initiated by removing growth factors and culturing cells in Neurobasal A with N2 and B27. Cells were allowed to differentiate for 16 days. HDAC inhibitory compound was then added and incubate for 24 h. RNA isolation was performed using the RNeasy Plus mini kit (QIAgen #74134) using a QIAcube instrument per manufacturer's instructions. qRT-PCR was performed using qScript One-Step SYBR Green qRT-PCR Kit (Quanta Biosciences 170-8893BR) with the following conditions: 20 minutes at 50° C., 5 minutes at 95° C., and then 40 cycles of 20 seconds at 95° C., 20 seconds at 55° C., 30 seconds at 72° C. The primer sequences to detect expression of FXN were: 5′-[…]-3′ and 5′-[…]-3′.
The data for the following compounds, for FXN mRNA fold induction at a compound concentration of 0.625 μM are shown in Table 1, where A<1, 1<B<2, 2<C<3, 3<D<5, E>5.
Regarding `CN1CC(Oc2ccc(C(=O)Nc3ccccc3N)cc2)C1` [Compound 42, N-(2-aminophenyl)-4-((1-methylazetidin-3-yl)oxy)benzamide], the fold induction at 0.625 µM was in the range of 1 to 2.
The result for `Nc1ccccc1NC(=O)c1ccc(N[C@H]2CCN(C3CC3)C2)cc1` [Compound 136, (S)-N-(2-aminophenyl)-4-((1-cyclopropylpyrrolidin-3-yl)amino)benzamide] reads 1 to 2.
The result for `Nc1ccccc1NC(=O)c1ccc(NC2CCCN(CC3CC3)CC2)cc1` (stereo not shown) [Compound 83, N-(2-aminophenyl)-4-((1-(cyclopropylmethyl)azepan-4-yl)amino)benzamide trihydrochloride] reads 2 to 3; that for `CC(C)(C)CN1CC[C@@H](Nc2ccc(C(=O)Nc3ccccc3N)cc2)C1` [Compound 106, (R)-N-(2-aminophenyl)-4-((1-neopentylpyrrolidin-3-yl)amino)benzamide], 2 to 3.
Regarding `Nc1ccccc1NC(=O)c1ccc(O[C@@H]2CCCN(CC3CC3)CC2)cc1` [Compound 38B, (R)-N-(2-aminophenyl)-4-((1-(cyclopropylmethyl)azepan-4-yl)oxy)benzamide], the fold induction at 0.625 µM is 1 to 2.
For `Nc1ccccc1NC(=O)c1ccc(NC2CCCN(CC3CCCCC3)CC2)cc1` (stereo not shown) [Compound 85, N-(2-aminophenyl)-4-((1-(cyclohexylmethyl)azepan-4-yl)amino)benzamide] the value was 2 to 3; for `Nc1ccccc1NC(=O)c1ccc(NC2CN(CC3CC3)C2)cc1` [Compound 91, N-(2-aminophenyl)-4-((1-(cyclopropylmethyl)azetidin-3-yl)amino)benzamide trihydrochloride], 1 to 2.
For `CC(C)(O)CN1CC[C@H](Nc2ccc(C(=O)Nc3ccccc3N)cc2)C1` [Compound 97, (S)-N-(2-aminophenyl)-4-((1-(2-hydroxy-2-methylpropyl)pyrrolidin-3-yl)amino)benzamide] the value was 1 to 2.
For `CC1(CN2CC[C@H](Nc3ccc(C(=O)Nc4ccccc4N)cc3)C2)CC1` [Compound 100, (S)-N-(2-aminophenyl)-4-((1-((1-methylcyclopropyl)methyl)pyrrolidin-3-yl)amino)benzamide] the value was 1 to 2; for `Nc1ccccc1NC(=O)c1ccc(N[C@H]2CCNC2)cc1` [Compound 94, (S)-N-(2-aminophenyl)-4-(pyrrolidin-3-ylamino)benzamide trihydrochloride], 1 to 2; for `CC1(CN2CCC(Nc3ccc(C(=O)Nc4ccccc4N)cc3)CC2)CC1` [Compound 113, N-(2-aminophenyl)-4-((1-((1-methylcyclopropyl)methyl)piperidin-4-yl)amino)benzamide trihydrochloride], 2 to 3.
Take `Nc1ccccc1NC(=O)c1ccc(OC2CCCN(CC3CC3)CC2)cc1` (stereo not shown) [Compound 38, N-(2-aminophenyl)-4-((1-(cyclopropylmethyl)azepan-4-yl)oxy)benzamide dihydrochloride]: the fold induction at 0.625 µM lay within 2 to 3.
The result for `CC(C)(O)CN1CC[C@@H](Oc2ccc(C(=O)Nc3ccccc3N)cc2)C1` [Compound 60, (R)-N-(2-aminophenyl)-4-((1-(2-hydroxy-2-methylpropyl)pyrrolidin-3-yl)oxy)benzamide dihydrochloride] reads 1 to 2; that for `Nc1ccccc1NC(=O)c1ccc(O[C@H]2CCCN(CC3CC3)CC2)cc1` [Compound 38A, (S)-N-(2-aminophenyl)-4-((1-(cyclopropylmethyl)azepan-4-yl)oxy)benzamide], less than 1; that for `Nc1ccccc1NC(=O)c1ccc(N[C@@H]2CCN(C3CC3)C2)cc1` [Compound 138, (R)-N-(2-aminophenyl)-4-((1-cyclopropylpyrrolidin-3-yl)amino)benzamide trihydrochloride], 2 to 3.
As for `CC(C)CN1CC(Oc2ccc(C(=O)Nc3ccccc3N)cc2)C1` [Compound 43, N-(2-aminophenyl)-4-((1-isobutylazetidin-3-yl)oxy)benzamide dihydrochloride], the fold induction at 0.625 µM is 1 to 2.
